Values of other authors, collected in patent US20010046548A1, “Anticholesterolemic edible oil” (priority 1998, published 2001).

Row | SMILES | absorption (in vivo) | fraction absorbed (ingested, small intestine)
1 | CC[C@H](CC[C@@H](C)[C@H]1CC[C@H]2[C@@H]3CC[C@H]4C[C@@H](O)CC[C@]4(C)[C@H]3CC[C@]12C)C(C)C [sitostanol] | completely unabsorbed | 
2 | CC[C@H](CC[C@@H](C)[C@H]1CC[C@H]2[C@@H]3CC=C4C[C@@H](O)CC[C@]4(C)[C@H]3CC[C@]12C)C(C)C [beta-sitosterol] |  | less than 5%
